Test results: publication PMC9685055, “Biological activity of new bioactive steroids deriving from biotransformation of cortisone” (Microbial Cell Factories, 2022)

Legend:
[1] = test system: Salmonella typhimurium TA98; test: Ames test (plate incorporation), strain TA98; format: cell-based
Protocol: Mutagenicity assay was performed following the plate incorporation method with the histidine-requiring Salmonella typhimurium mutant TA98 and TA100 strains. All strains (100 µl per plate of fresh overnight cultures) were checked with and without the addition of 0.5 mL of a 5% S9 exogenous metabolic activator (S9 mix). The lyophilized post-mitochondrial supernatant S9 mix (Aroclor 1254-induced, Sprague–Dawley male rat liver in 0.154 M KCl solution, Molecular Toxicology, Inc., Boone, NC, USA), commonly used for the activation of pro-mutagens to mutagenic metabolites, was stored at− 80 °C before use. The concentration tested for all the samples were 1, 5, 10, 50, 100 µL/plate of a stock solution 100 mg/mL.
A fully-grown culture of the appropriate tester strain (0.1 mL) was added to 2 mL Molten Top Agar (0.6% agar, 0.6% NaCl, 0.5 mM L-histidine/biotin solution) at 46 °C, together with 0.1 mL of each sample solution at different concentrations, and 0.5 mL S9 mix for assays with metabolic activation or 0.5 mL of phosphate buffer pH 7.4 to test without metabolic activation. The ingredients were thoroughly mixed and poured onto minimal glucose agar plates (1.5% agar in 2% Vogel–Bonner medium E with 5% glucose solution).
DMSO was used as a negative control (100 µl/plate). Positive controls were prepared as follows: 2-aminoanthracene (2 µg/plate) and 2-nitrofluorene (2 µg/plate) for TA98 with and without metabolic activator (S9 mix) respectively; 2-aminoanthracene (2 µg/plate) and sodium azide (2 µg/plate) for TA100, with and without metabolic activator (S9 mix) respectively. The plates were incubated at 37 °C for 72 h and then the his^+ revertants were checked and counted using a Colony Counter 560 Suntex (Antibioticos, Italy). A sample was considered mutagenic when the observed number of colonies was at least twofold over the spontaneous level of revertants. All determinations were made in triplicate. Relative standard deviations were computed using the statistical software […] 6.0 (StatSoft Italia srl).

[2] = Photochemiluminescence (PCL-ACL) antioxidant assay; conditions: 0.1 mg/mL; Trolox equivalents per g of sample
Protocol: Photochemiluminescence assay, based on the methodology of Popov and Lewin [35], was performed to measure the antioxidant activity of cortisone, SCA and SCB compounds against superoxide anion radicals generated from luminol, a photosensitizer, when exposed to UV light at λmax = 351 nm. The antioxidant activity of compounds was measured using ACL kits (Analytic Jena, Jena, Germany) with a Photochem apparatus (Analytic Jena, Jena, Germany). In the PCL-ACL assay, the photochemical generation of free radicals is combined with the sensitive detection using chemiluminescence. In ACL studies, the kinetic light emission curve was monitored for 3 min and expressed as mM Trolox equivalents. The areas under the curves were calculated using the PCL soft control and analysis software. […] The observed inhibition of the signal was plotted against the concentration of Trolox added to the assay medium. The concentration of the added sample was such that the generated luminescence during the 3 min sampling interval fell within the limits of the standard curve. For ACL assay, 2.3 mL of reagent 1 (solvent and dilution reagent, methanol), 0.2 mL of reagent 2 (buffer solution), 25 μL of reagent 3 (photosensitizer: luminol 1 mmol L^−1), and 10 μL of standard or sample solution were mixed and measured. Luminol is used as a photosensitizer and as a detecting substance for free radicals. Trolox were used for the standard calibration curve from […].

[3] = test system: IL-1α secretion in TNFα-stimulated HaCaT cells; test: TNFα-induced IL-1α secretion, ELISA; format: cell-based, human; conditions: 10 μM pretreatment 24 h, then 10 ng/mL TNFα 1 h, supernatant 24 h later
Protocol: HaCaT cells were cultured with Dulbecco’s modified Eagle’s medium High Glucose (Lonza, Milan, Italy) supplemented with 10% FBS, 100 U/mL penicillin, 100 μg/mL streptomycin and 2 mM L-glutamine as previously described. Cells were maintained in a humidified incubator at 37 °C with 5% CO2 and incubated until the monolayer was 80% confluent. Medium was changed every 2 days.
HaCaT cells were pretreated with or without 10 μM of both SCA and SCB for 24 h. Stock solutions of the two compounds were prepared in DMSO immediately before use and diluted to the final concentration in the culture medium. In some sets of experiments, betamethasone-17-valerate (10 µg/mL) served as a positive control; dimethyl sulfoxide (DMSO) served as a solvent control. After the pretreatments, cells were stimulated with 10 ng/mL TNFα for 1 h to induce the NFκB signaling pathway. Then, media were replaced with fresh culture medium. […]
IL-1α secretion, after the treatment with 10 and 20 µM of each compound and together at the same concentrations, was assayed by a commercially available ELISA kit (Thermo Scientific, Italy). […] The optical absorbance was measured with a spectrophotometer microplate reader at 450 nm and correction at 530 nm. Final concentrations were calculated by interpolation with a standard curve of Recombinant Human IL-1α provided by the kit and results expressed as pg/mL.

[4] = TA98, + S9, 1 µL/plate of a stock solution 100 mg/mL
[5] = TA98, + S9, 5 µL/plate of a stock solution 100 mg/mL
[6] = TA98, + S9, 10 µL/plate of a stock solution 100 mg/mL
[7] = TA98, + S9, 50 µL/plate of a stock solution 100 mg/mL
[8] = TA98, + S9, 100 µL/plate of a stock solution 100 mg/mL
[9] = TA98, − S9, 1 µL/plate of a stock solution 100 mg/mL
[10] = TA98, − S9, 5 µL/plate of a stock solution 100 mg/mL
[11] = TA98, − S9, 10 µL/plate of a stock solution 100 mg/mL
[12] = TA98, − S9, 50 µL/plate of a stock solution 100 mg/mL
[13] = TA98, − S9, 100 µL/plate of a stock solution 100 mg/mL

Cc1ccc(O)c2c1CCC1C3CC[C@](O)(C(=O)CO)[C@@]3(C)CC(=O)[C@@]21O (stereo partly drawn) [SCA, 1,9β,17,21‐tetrahydoxy‐4‐methyl‐19‐nor‐9β‐pregna‐1,3,5(10)‐trien‐11,20‐dione]
genotoxic activity (Ames test) [1]: For none of the samples genotoxic activity emerged
average number of revertant colonies [1, 4]: 43,7
t/c (revertant colonies in treated plates/untreated plates) [1, 4]: 1.2
average number of revertant colonies [1, 5]: 43,3
t/c (revertant colonies in treated plates/untreated plates) [1, 5]: 1.2
average number of revertant colonies [1, 6]: 41,3
t/c (revertant colonies in treated plates/untreated plates) [1, 6]: 1.1
average number of revertant colonies [1, 7]: 39,3
t/c (revertant colonies in treated plates/untreated plates) [1, 7]: 1.1
average number of revertant colonies [1, 8]: 41,3
t/c (revertant colonies in treated plates/untreated plates) [1, 8]: 1.1
average number of revertant colonies [1, 9]: 17,7
t/c (revertant colonies in treated plates/untreated plates) [1, 9]: 0.9
average number of revertant colonies [1, 10]: 23,7
t/c (revertant colonies in treated plates/untreated plates) [1, 10]: 1.1
average number of revertant colonies [1, 11]: 23,3
t/c (revertant colonies in treated plates/untreated plates) [1, 11]: 1.1
average number of revertant colonies [1, 12]: 25,3
t/c (revertant colonies in treated plates/untreated plates) [1, 12]: 1.2
average number of revertant colonies [1, 13]: 20,3
t/c (revertant colonies in treated plates/untreated plates) [1, 13]: 1.0
antioxidant capacity, PCL-ACL assay [2]: 1375 µmol/g
effect on TNFα-triggered IL-1α release [3]: markedly inhibited

Cc1ccc(O)c2c1CCC1C3CC[C@](O)([C@H](O)CO)[C@@]3(C)CC(=O)[C@@]21O (stereo partly drawn) [SCB, 1,9β,17,20β,21‐ pentahydoxy‐4‐methyl‐19‐nor‐9β‐pregna‐1,3,5(10)‐trien‐11‐one]
genotoxic activity (Ames test) [1]: For none of the samples genotoxic activity emerged
average number of revertant colonies [1, 4]: 34
t/c (revertant colonies in treated plates/untreated plates) [1, 4]: 1.1
average number of revertant colonies [1, 5]: 35
t/c (revertant colonies in treated plates/untreated plates) [1, 5]: 1.1
average number of revertant colonies [1, 6]: 35
t/c (revertant colonies in treated plates/untreated plates) [1, 6]: 1.1
average number of revertant colonies [1, 7]: 31
t/c (revertant colonies in treated plates/untreated plates) [1, 7]: 1.0
average number of revertant colonies [1, 8]: 30
t/c (revertant colonies in treated plates/untreated plates) [1, 8]: 0.9
average number of revertant colonies [1, 9]: 24
t/c (revertant colonies in treated plates/untreated plates) [1, 9]: 1.0
average number of revertant colonies [1, 10]: 23
t/c (revertant colonies in treated plates/untreated plates) [1, 10]: 0.9
average number of revertant colonies [1, 11]: 22
t/c (revertant colonies in treated plates/untreated plates) [1, 11]: 0.9
average number of revertant colonies [1, 12]: 21
t/c (revertant colonies in treated plates/untreated plates) [1, 12]: 0.9
average number of revertant colonies [1, 13]: 19
t/c (revertant colonies in treated plates/untreated plates) [1, 13]: 0.8
antioxidant capacity, PCL-ACL assay [2]: 1265 µmol/g
effect on TNFα-triggered IL-1α release [3]: markedly inhibited
